Results: US20250099474A1 (priority 2022, published 2025)

How the values were obtained:
[1] = monkey, in vivo
[2] = system: SARS-CoV-2; assay: Phase 2/3 study, Phase 2b Part: SARS-CoV-2 virus titer on Day 4; assay type: in vivo, human; settings: for Change from baseline in SARS-CoV-2 virus titer on Day 4: Adjusted mean value by covariance analysis (standard error) / Change from baseline in SARS-CoV-2 virus titer on Day 4: Difference of adjusted mean value from that of placebo group (standard error) / Change from baseline in SARS-CoV-2 virus titer on Day 4: Maximum value / Change from baseline in SARS-CoV-2 virus titer on Day 4: Mean value / Change from baseline in SARS-CoV-2 virus titer on Day 4: Median value / Change from baseline in SARS-CoV-2 virus titer on Day 4: Minimum value: mild/moderate patients, ITT1 population
Experimental: The primary endpoints of Phase 2b Part were the time-weighted average change in the total score of 12 COVID-19 symptoms per unit time from the start of the first administration (Day 1) to 120 hours (Day 6), and the change from baseline in SARS-CoV-2 virus titer on Day 4, in mild/moderate SARS-CoV-2-infected patients, and the clinical improvement and the antiviral effect of the active drug were confirmed.
The administration of the active drug is repeated oral administration once a day for 5 days. The 375/125 mg group received 375 mg on Day 1 as a loading dose and 125 mg on Days 2 to 5 as a maintenance dose. The 750/250 mg group received 750 mg on Day 1 as a loading dose and 250 mg on Days 2 to 5 as a maintenance dose.
The primary efficacy endpoints of Phase 2b Part for mild/moderate SARS-CoV-2-infected patients were the time-weighted average change in the total score of 12 COVID-19 symptoms per unit time from the start of the first administration (Day 1) to 120 hours (Day 6), and the change from baseline in SARS-CoV-2 virus titer on Day 4. The total score of 12 COVID-19 symptoms is the sum of the scores determined by evaluation in four grades (0: none, 1: mild, 2: moderate, 3: severe) in the subject daily records for each of the 12 COVID-19 symptoms (low energy and tiredness, muscle or body aches, headache, chills or shivering, feeling hot or feverish, stuffy and runny nose, sore throat, cough, shortness of breath (difficulty breathing), nausea, vomiting, diarrhea).
Pairwise comparison was performed between each active drug dose group and the placebo group. […] Pairwise comparison was performed between each active drug dose group and the placebo group.

[3] = Phase I clinical study Part 1, single administration, pharmacokinetics and safety; assay type: in vivo, human; settings: phase 1 study
Experimental: Test Example 3-1 Phase I Clinical Study
All studies were conducted based on Good Clinical Practice (GCP). The phase I clinical study was composed of Part 1 to Part 7, and in Part 1, the safety, tolerability, and pharmacokinetics were confirmed when the fumaric acid cocrystal Form I crystal of the compound represented by Formula (I) was administered once and when it was administered repeatedly.
The subjects who were determined to be eligible by the screening examination were randomly assigned to either the active drug group (see the following table for the dose of the fumaric acid cocrystal Form I crystal of the compound represented by Formula (I)) or the placebo group on the day before the day of administration of the investigational new drug (Day −1). On Day 1, the investigational new drug (active drug or placebo) was administered once in the fasted state.

Which “NOAEL (plasma concentration)” value [1] does the source give for `Cn1cnc(Cn2c(=O)[nH]/c(=N\c3cc4cn(C)nc4cc3Cl)n(Cc3cc(F)c(F)cc3F)c2=O)n1` [(6E)-6-[(6-chloro-2-methyl-2H-indazol-5-yl)imino]-3-[(1-methyl-1H-1,2,4-triazol-3-yl)methyl]-1-[(2,4,5-trifluorophenyl)methyl]-1,3,5-triazinane-2,4-dione] here?
The value was 75.2 to 77.6 µg/mL.

What about the “Proportion of patients with a positive virus titer of 1.1 or more on Day 4” value ([2]; 375/125 mg group) of the same compound?
Its value is 1.9%.

What about the “SARS-CoV-2 virus titer on Day 4 as compared with the placebo group” value ([2]; 375/125 mg group and 750/250 mg group, p<0.0001) of the same compound?
The value was “statistically significantly reduced”.

And the “Proportion of patients with a positive virus titer of 1.1 or more on Day 4” value ([2]; 750/250 mg group)?
The value was 5.4%.

What about the “Change from baseline in SARS-CoV-2 virus titer on Day 4: Adjusted mean value by covariance analysis (standard error)” value ([2]; 375/125 mg group) of the same compound?
The value was −1.49 (0.04).

And the “Change from baseline in SARS-CoV-2 virus titer on Day 4: Difference of adjusted mean value from that of placebo group (standard error)” value ([2]; 375/125 mg group)?
Its value is −0.41 (0.05).

What about the “Change from baseline in SARS-CoV-2 virus titer on Day 4: Maximum value” ([2]; 375/125 mg group) of the same compound?
Its value is 0.0.

And the “Change from baseline in SARS-CoV-2 virus titer on Day 4: Mean value” ([2]; 375/125 mg group)?
Its value is −1.69.

And the “Change from baseline in SARS-CoV-2 virus titer on Day 4: Median value” ([2]; 375/125 mg group)?
The value was −1.70.

And the “Change from baseline in SARS-CoV-2 virus titer on Day 4: Minimum value” ([2]; 375/125 mg group)?
Its value is −3.7.

And the “Change from baseline in SARS-CoV-2 virus titer on Day 4: Adjusted mean value by covariance analysis (standard error)” value ([2]; 750/250 mg group)?
The value was −1.49 (0.04).

What about the “Change from baseline in SARS-CoV-2 virus titer on Day 4: Difference of adjusted mean value from that of placebo group (standard error)” value ([2]; 750/250 mg group) of the same compound?
The value was −0.41 (0.05).

What about the “Change from baseline in SARS-CoV-2 virus titer on Day 4: Maximum value” ([2]; 750/250 mg group) of the same compound?
The value was 0.0.

And the “Change from baseline in SARS-CoV-2 virus titer on Day 4: Mean value” ([2]; 750/250 mg group)?
Its value is −1.43.

And the “Change from baseline in SARS-CoV-2 virus titer on Day 4: Median value” ([2]; 750/250 mg group)?
Its value is −1.40.

And the “Change from baseline in SARS-CoV-2 virus titer on Day 4: Minimum value” ([2]; 750/250 mg group)?
The value was −3.4.

And the serious adverse events [3]?
Its serious adverse events is “no serious adverse events for which a causal relationship cannot be denied were reported”.
